Test results from the supplement of paper PMC10307832.

Legend:
Assay in all cases: relative viability (nuclei count vs DMSO), 5 days (fraction); higher = more cells survive
[1] = compound: Cc1ccc(C(=O)N(CCCN)[C@@H](c2nc3cc(Cl)ccc3c(=O)n2Cc2ccccc2)C(C)C)cc1 [Ispinesib] + N=C(N)NC(=N)NCCc1ccccc1 [Phenformin] (partner 250 µM)
Summary of the method: (§1)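 Lung cancer cell lines were seeded in 1536-well plates and dosed by pin tool the next day, with either a single drug or a fixed anchor-drug dose combined with five library-drug doses (not always all listed) spaced in √10 steps. Five days later, one step fixed the cells and stained their nuclei (final 0.05% Triton X-100, 1% formaldehyde, 1 ug/ml Hoechst), and nuclei were counted on 4× images. Relative viability is the nuclei count in treated wells divided by the count in vehicle wells, and each value is the median of duplicate plates.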

[2] = compound: C[C@]1(O)C[C@@H](c2nc(-c3ccc4ccc(-c5ccccc5)nc4c3)c3c(N)nccn32)C1 [Linsitinib] + CS(=O)(=O)CCNCc1ccc(-c2ccc3ncnc(Nc4ccc(OCc5cccc(F)c5)c(Cl)c4)c3c2)o1 [Lapatinib] (partner 2 µM)
Summary of the method: as §1

[3] = compound: C[C@]1(O)C[C@@H](c2nc(-c3ccc4ccc(-c5ccccc5)nc4c3)c3c(N)nccn32)C1 [Linsitinib] + Cc1nc(Nc2ncc(C(=O)Nc3c(C)cccc3Cl)s2)cc(N2CCN(CCO)CC2)n1 [Dasatinib] (partner 0.075 µM)
Summary of the method: as §1

[4] = compound: Cc1ccc(C(=O)N(CCCN)[C@@H](c2nc3cc(Cl)ccc3c(=O)n2Cc2ccccc2)C(C)C)cc1 [Ispinesib] + COc1cccc2cc(-c3nc([C@H]4CC[C@H](C(=O)O)CC4)n4ncnc(N)c34)[nH]c12 [OSI-027] (partner 0.5 µM)
Summary of the method: as §1

| Cell Line | relative viability ([1]; first compound 0.001 µM) | relative viability ([1]; first compound 0.003162 µM) | relative viability ([1]; first compound 0.01 µM) | relative viability ([1]; first compound 0.03162 µM) | relative viability ([1]; first compound 0.1 µM) | relative viability ([2]; first compound 0.01 µM) | relative viability ([2]; first compound 0.03162 µM) | relative viability ([2]; first compound 0.1 µM) | relative viability ([2]; first compound 0.3162 µM) | relative viability ([2]; first compound 1 µM) | relative viability ([3]; first compound 0.01 µM) | relative viability ([3]; first compound 0.03162 µM) | relative viability ([3]; first compound 0.1 µM) | relative viability ([3]; first compound 0.3162 µM) | relative viability ([3]; first compound 1 µM) | relative viability ([4]; first compound 0.001 µM) | relative viability ([4]; first compound 0.003162 µM) | relative viability ([4]; first compound 0.01 µM) | relative viability ([4]; first compound 0.03162 µM) | relative viability ([4]; first compound 0.1 µM) |
| --- | --- | --- | --- | --- | --- | --- | --- | --- | --- | --- | --- | --- | --- | --- | --- | --- | --- | --- | --- | --- |
| NCI-H1666 | 0.524 | 0.6 | 0.541 | 0.475 | 0.343 | 0.806 | 0.506 | 0.477 | 0.163 | 0.183 | 0.854 | 0.767 | 0.853 | 0.64 | 0.473 | 0.749 | 0.889 | 0.864 | 0.712 | 0.476 |
| NCI-H1734 | 0.455 | 0.379 | 0.414 | 0.239 | 0.156 | 1.05 | 1.15 | 1.05 | 0.714 | 0.778 | 0.473 | 0.488 | 0.45 | 0.504 | 0.315 | 0.609 | 0.585 | 0.659 | 0.459 | 0.177 |
| NCI-H1755 | 0.553 | 0.646 | 0.638 | 0.463 | 0.195 | 1.01 | 1.02 | 1.04 | 0.54 | 0.876 | 0.428 | 0.431 | 0.427 | 0.363 | 0.229 | 0.665 | 0.791 | 0.859 | 0.57 | 0.321 |
| NCI-H1792 | 0.396 | 0.317 | 0.257 | 0.0806 | 0.154 | 0.903 | 0.847 | 0.706 | 0.667 | 0.649 |  | 0.927 | 0.771 | 0.529 | 0.215 | 0.889 | 1.09 | 0.743 | 0.862 | 0.356 |
| NCI-H1793 | 0.375 | 0.357 | 0.448 | 0.278 | 0.133 | 0.786 | 0.822 | 0.751 | 0.43 | 0.478 | 0.434 | 0.367 | 0.382 | 0.332 | 0.392 | 0.275 | 0.343 | 0.294 | 0.22 | 0.16 |
| NCI-H1915 | 0.413 | 0.372 | 0.392 | 0.165 | 0.176 | 0.984 | 1.01 | 0.981 | 0.608 | 0.723 | 0.306 | 0.351 | 0.299 | 0.331 | 0.234 | 0.679 | 0.514 | 0.751 | 0.252 | 0.212 |
| NCI-H1944 | 0.199 | 0.247 | 0.206 | 0.167 | 0.106 | 0.787 | 0.833 | 0.872 | 0.527 | 0.46 | 0.224 | 0.237 | 0.196 | 0.236 | 0.162 | 0.398 | 0.449 | 0.426 | 0.338 | 0.17 |
| NCI-H1975 | 0.448 | 0.412 | 0.458 | 0.164 | 0.11 | 0.825 | 0.82 | 0.866 | 1.04 | 0.684 | 0.37 | 0.349 | 0.331 | 0.241 | 0.235 | 0.781 | 0.819 | 0.991 | 0.258 | 0.127 |
| NCI-H1993 | 0.537 | 0.483 | 0.543 | 0.518 | 0.436 | 0.784 | 0.793 | 0.76 | 0.498 | 0.684 | 0.645 | 0.584 | 0.509 | 0.738 | 0.475 | 0.518 | 0.601 | 0.565 | 0.514 | 0.442 |
| NCI-H2009 | 0.519 | 0.512 | 0.451 | 0.312 | 0.186 | 0.945 | 0.878 | 0.997 | 0.148 | 0.963 | 0.285 | 0.262 | 0.274 |  | 0.2 | 0.702 | 0.695 | 0.618 | 0.212 | 0.211 |
| NCI-H2023 | 0.484 | 0.479 | 0.384 | 0.187 | 0.154 | 0.821 | 0.411 | 0.895 | 0.0717 | 0.408 | 0.472 | 0.373 | 0.528 | 0.29 | 0.218 | 0.467 | 0.421 | 0.404 | 0.163 | 0.143 |
| NCI-H2085 | 0.751 | 0.692 | 0.75 | 0.474 | 0.278 | 0.701 | 0.822 | 0.822 | 0.753 | 0.658 | 0.275 | 0.257 | 0.22 | 0.246 | 0.23 | 0.815 | 0.715 | 0.824 | 0.541 | 0.264 |
| NCI-H2087 | 0.492 | 0.473 | 0.441 | 0.32 | 0.134 | 0.886 | 1.26 | 1.13 | 0.349 | 0.626 | 0.756 | 0.917 | 0.819 | 0.549 | 0.624 | 0.551 | 0.643 | 0.535 | 0.206 | 0.102 |
| NCI-H2126 | 0.516 | 0.531 | 0.533 | 0.433 | 0.263 | 0.774 | 0.754 | 0.704 | 0.392 | 0.455 | 0.596 | 0.649 | 0.527 | 0.273 | 0.27 | 0.757 | 0.894 | 0.674 | 0.664 | 0.63 |
| NCI-H2170 | 0.429 | 0.462 | 0.401 | 0.281 | 0.178 | 0.266 | 0.256 | 0.276 | 0.256 | 0.228 | 0.56 | 0.569 | 0.519 | 0.409 | 0.488 | 0.743 | 0.644 | 0.75 | 0.354 | 0.191 |
| NCI-H2228 | 0.283 | 0.312 | 0.321 | 0.126 | 0.145 | 0.978 | 0.839 | 1.08 | 0.663 | 0.8 | 0.48 | 0.483 | 0.52 | 0.421 | 0.387 | 0.609 | 0.553 | 0.636 | 0.222 | 0.209 |
| NCI-H2347 | 0.404 | 0.547 | 0.414 | 0.553 | 0.386 | 0.821 | 0.998 | 0.969 | 0.461 | 0.772 | 0.3 | 0.339 | 0.317 |  | 0.3 | 0.317 | 0.421 | 0.456 | 0.368 | 0.437 |
| NCI-H2405 | 0.41 | 0.408 | 0.705 | 0.361 | 0.289 | 1.12 | 1.04 | 1.07 | 0.887 | 0.735 | 0.189 | 0.207 | 0.202 | 0.34 | 0.18 | 0.655 | 0.657 | 0.755 | 0.635 | 0.389 |
| NCI-H3122 | 0.384 | 0.408 | 0.856 | 0.197 | 0.108 | 1.04 | 1.06 | 0.982 | 0.737 | 1.12 | 0.846 | 0.808 | 0.765 | 0.218 | 0.514 | 1.07 | 1.38 | 1.06 | 0.218 | 0.14 |
| PC-3 [JPC-3] | 0.494 | 0.475 | 0.44 | 0.461 | 0.254 | 0.43 | 0.455 | 0.405 | 0.369 | 0.373 | 1 | 0.912 | 1.06 | 0.991 | 0.98 | 0.703 | 0.841 | 0.851 | 0.627 | 0.431 |
| PC-14 | 0.607 | 0.755 | 0.338 | 0.122 | 0.0821 | 0.281 | 0.301 | 0.303 | 0.31 | 0.257 | 0.285 | 0.274 | 0.282 | 0.202 | 0.19 | 0.983 | 0.791 | 0.256 | 0.0319 | 0.0859 |
| RERF-LC-KJ | 0.422 | 0.365 | 0.33 | 0.217 | 0.253 | 0.8 | 0.846 | 0.826 | 0.554 | 0.645 | 0.75 | 0.964 | 0.697 | 0.543 | 0.454 | 0.527 | 0.541 | 0.405 | 0.246 | 0.268 |
| SK-LU-1 | 0.555 | 0.627 | 0.561 | 0.251 | 0.203 | 0.889 | 0.902 | 0.987 |  | 0.815 | 0.193 |  | 0.168 | 0.182 | 0.115 | 0.395 | 0.386 | 0.445 | 0.216 | 0.199 |
| SK-MES-1 | 0.753 | 0.714 | 0.761 | 0.193 | 0.186 | 0.434 | 0.456 | 0.467 | 0.462 | 0.435 | 0.297 | 0.351 | 0.257 | 0.323 | 0.289 | 0.732 | 0.601 | 0.628 | 0.182 | 0.229 |
| SW 1573 | 0.373 | 0.369 | 0.426 | 0.145 | 0.141 | 1.18 | 1.3 | 1.05 | 0.939 | 0.933 | 0.454 | 0.454 | 0.453 | 0.348 | 0.252 | 0.622 | 0.645 | 0.526 | 0.162 | 0.186 |
